We go through 9 compounds from PubChem BioAssay (NCI).

What all share (test): growth of human tumour cells (NCI), 48 h
Test [1] concerns HOP-92 NSCLC.
Test [2] relates to NCI/ADR-RES ovarian.
Test [3] concerns DU-145 prostate.
Test [4] concerns NCI-H23 lung.
In test [5] the test system is CCRF-CEM leukemia.
In test [6] the test system is SN12C renal.
For test [7], the system named is NCI-H460 lung.
Test [8] relates to SF-268 CNS.
Test [9] concerns SR leukemia.
In test [10] the test system is HT29 colon.

Molecules are shown by their SMILES. Several values for one entry are separate records, joined by “and”; a condition that tells them apart may be missing. Equal values may be shown once.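 Dose response: 5 concentrations. Exposure: 48 h. Format: 96-well plates. Endpoint: linear interpolation; highest concentration if not reached. GI50 marks 50% less growth. TGI denotes the concentration required for complete inhibition of growth.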 Some results are limits rather than exact numbers.

As to `C=C1C(=O)OC2CC3(C)OC3C3OC3C3=CC(OC3=O)C12` (centres undefined), the GI50 was 2.01 µM in [1]; 27.2 µM in test [2]; 16.6 µM in test [3]; 13.4 µM in test [4]; 1.05 µM in test [5]; 11.3 µM in [6]. Moreover, the GI50 in test [7] was 19.9 µM; in test [8] it was 19 µM; in [9], 2.82 µM; in test [10], 3.21 µM. Further, the TGI in test [1] was found to be 4.77 µM; in test [2], 69.3 µM; in [3], 34.3 µM; in test [4] it was 32.6 µM; in test [5], 3.2 µM; in [6], 25.2 µM. For the same compound, the TGI in test [7] turned out to be 41.3 µM; in test [8], 38 µM; in test [9], 7.81 µM; in test [10] it was 10.8 µM.
`O=P1(O)c2ccccc2CS(=O)(=O)Cc2ccccc21`: the TGI in [1], in test [2], in test [3], in test [4], in test [5] and in [6] was over 100 µM in each case. Besides, the TGI in test [7], in test [8] and in test [10] was over 100 µM each time.
In the case of `Cc1cc2c(C(C)C)c(O)c(O)c(C=O)c2c(O)c1-c1c(C)cc2c(C(C)C)c(O)c(O)c(C=O)c2c1O` (tested in a mixture with another compound), the GI50 in test [1] is 0.223 µM; in [2], 0.825 µM; in test [3] it was 1.12 µM; in test [4] it was 0.464 µM; in [5], 0.546 µM; in [6], 1.66 µM. Moreover, the GI50 in test [7] is 0.484 µM; in test [8] it was 1.06 µM; in test [9], 1.46 µM; in test [10] it was 1.61 µM. The TGI in [1] worked out at 0.909 µM; in test [2] it was 2.56 µM; in test [3] it was 3.07 µM; in [4], 2.03 µM; in test [5] it was 13.7 µM; in test [6], 5.95 µM. The TGI in test [7] was 1.87 µM; in test [8] it was 3.26 µM; in [9], 17.8 µM; in test [10] it was 3.51 µM.
Consider `CC[C@@]1(OC(=O)CN)C(=O)OCc2c1cc1n(c2=O)Cc2cc3c(N)c4c(cc3nc2-1)OCO4`, for which the GI50 in [2] was 0.000145 µM; in [3], under 0.0001 µM; in test [4], under 0.0001 µM; in [5], under 0.0001 µM; in test [6], under 0.0001 µM; in test [7] it was under 0.0001 µM. Besides, the GI50 in test [8] and in test [9] was under 0.0001 µM throughout. Moreover, the TGI in test [2] was 0.0193 µM; in test [5] it was 0.551 µM; in [8] it was 0.125 µM and 0.183 µM; in [9] it was 0.159 µM; in [10], over 100 µM.
Turning to `CCCCCc1c(C)[nH]c(/C=c2\[nH]/c(=C3/C=c4ccccc4=N3)cc2OC)c1C`, the GI50 in [1] was 0.0236 µM; in test [2], 0.17 µM; in test [3] it was 0.0911 µM; in [4] it was 0.236 µM; in test [5] it was 0.0435 µM; in test [6] it was 0.0926 µM. Moreover, the figures for the GI50 in test [7], in test [8] and in test [9] were 0.0614 µM, 0.077 µM and 0.0335 µM, respectively. Also, the TGI in [1] was 0.203 µM; in [2], 3.72 µM; in test [3], 16.4 µM; in test [4], 3.1 µM; in test [5], 6.03 µM; in test [6] it was 1.88 µM. Also, the TGI turned out to be 11.2 µM in [7], 2.43 µM in test [8] and 0.529 µM in [9].
Take `O=C1c2ccccc2C(=O)c2sc(Nc3ccc(Cl)c(Cl)c3)nc21`: the TGI was found to be 28 µM in test [1]; 33.2 µM in test [3]; 10.5 µM in [4]; 5.15 µM in [5]; 3.23 µM in [6]; 34.2 µM in [7]. The TGI in test [8] is 12.8 µM; in test [9], 11.5 µM; in [10], 42.5 µM.
Turning to `Cc1cc2nc3c4ccccc4n(CCN(C)C)c3nc2cc1C`, the GI50 in test [1] was 1.36 µM; in test [2] it was 1.39 µM; in [3], 2.07 µM; in test [4], 1.87 µM; in test [5] it was 1.99 µM; in test [6], 1.08 µM. Moreover, the GI50 was 0.709 µM in [7], 1.45 µM in test [8] and 0.76 µM in [10]. Further, the TGI in test [1] was found to be 8.85 µM; in [2] it was 12.7 µM; in test [3], 11.8 µM; in test [4], 5.7 µM; in test [5] it was 13.6 µM; in [6] it was 10.5 µM. The TGI in test [7] was 9.1 µM; in test [8], 5.86 µM; in test [10], 4.26 µM.
Consider `NC(=O)NC(=O)C1CCCCC1C(=O)O` (centres undefined), for which the TGI in [1], in [2], in test [3], in [4], in test [5] and in test [6] was over 100 µM in each case. Further, the TGI in test [7], in [8] and in test [10] was over 100 µM each time.
Turning to `COc1cccc(Nc2nccc(Nc3ccc4[nH]ncc4c3)n2)c1`, the GI50 in test [1] is 1.45 µM; in test [2], 1.54 µM; in test [3] it was 1.3 µM; in [4], 1.69 µM; in test [5] it was 0.901 µM; in test [7], 1.64 µM. Besides, the figures for the GI50 in [8], in [9] and in [10] were 1.86 µM, 1.34 µM and 1.52 µM, respectively. Further, the TGI in [1] stood at 4.14 µM; in [2] it was 4.36 µM; in test [3] it was 2.85 µM; in [4], 3.83 µM; in test [5] it was 4.56 µM; in test [7], 4.17 µM. Besides, the TGI in [8] turned out to be 5.89 µM; in test [9], 4.93 µM; in test [10], 3.45 µM.
